Test results published in patent publication US6951889B2, “2-amino-2-alkyl-5 heptenoic and heptynoic acid derivatives useful as nitric oxide synthase inhibitors” (Pharmacia Corporation, priority 2000, dated 2005).
pIC50: −log10 of the molar value.

Legend:
[1] = test system: LPS-induced increase in plasma nitrite/nitrate levels; assay: In vivo assay in endotoxin-treated rats; details: Rattus norvegicus, po, administered orally 0.5-1 hours prior to LPS, plasma nitrite/nitrate 5 hours following LPS, read-out: ED50 for inhibition of the LPS-induced increase in plasma nitrite/nitrate levels
Description: Compounds are administered orally 0.5-1 hours prior to LPS administration and plasma nitrite/nitrate levels are determined 5 hours following LPS administration.

[2] = test system: nitrite production in human cartilage explants induced with recombinant human IL-1β; assay: Human cartilage explant assay; type: cell-based; details: six concentrations of inhibitor, read-out: IC50 inhibition of nitrite production
Description: Bone pieces are rinsed twice with Dulbecco's Phosphate Buffered Saline (GibcoBRL) and once with Dulbecco's Modified Eagles Medium (GibcoBRL) and placed into a petri dish with phenol red free Minimum Essential Medium (MEM) (GibcoBRL). Cartilage was cut into small explants of approximately 15-45 mg in weight and one or two explants per well are placed into either 96 or 48 well culture plates with 200-500 μL of culture media per well. The culture media was either a custom modification of Minimum Essential Medium(Eagle) with Earle's salts (GibcoBRL) prepared without L-Arginine, without L-Glutamine and without phenol red or a custom modification of serumless Neuman and Tytell (GibcoBRL) medium prepared without L-arginine, without insulin, without ascorbic acid, without L-glutamine and without phenol red. […]
The day old supernatant is then discarded and replaced with fresh culture media containing recombinant human IL-1β and compound and incubated for another 20-24 hours. This supernatant is analyzed for nitrite with a fluorometric assay (Misko et al, Anal. Biochem., 214, 11-16, 1993). […] IC50 values (Table III) are determined from plotting the percent inhibition of nitrite production at six different concentrations of inhibitor.

| Structure (SMILES) | ED50 [1] | pIC50 [2] |
| --- | --- | --- |
| CC(=N)NC/C(F)=C\CC[C@](C)(N)C(=O)O.Cl.Cl [Example 1, (2S,5E)-2-amino-2-methyl-6-fluoro-7-[(1-iminoethyl)amino]-5-heptenoic acid, Dihydrochloride] | 0.4 mg/kg | 6.40 |
| CC(=N)NC/C=C\CC[C@](C)(N)C(=O)O.Cl.Cl [Example 14, (2S,5Z)-2-amino-2-methyl-7-[(1-iminoethyl)amino]-5-heptenoic acid, Dihydrochloride] | 0.3 mg/kg | 6.10 |
